{
  "source": "paper PMC7018803",
  "about": "“A randomized, placebo-controlled, phase 1 study to evaluate the effects of TAK-063 on ketamine-induced changes in fMRI BOLD signal in healthy subjects” (Psychopharmacology, 2019)",
  "key": {"[1]": {"experiment": "Plasma ketamine concentrations during intravenous bolus plus continuous infusion", "type": "in vivo", "details": "human", "method": "(§1) Subjects checked in on day − 1 of each treatment period during which vital signs, electrocardiogram (ECG), and laboratory safety tests were repeated. On day 1 of each treatment period, subjects received a 3-, 10-, or 30-mg TAK-063 dose or placebo tablets. Participants then relaxed, slept, or watched movies while remaining in the research environment. Ketamine (0.12 mg/kg intravenous bolus over 60 s followed by a continuous infusion of 0.31 mg/kg/h over approximately 150 min) was administered 4 h after TAK-063 or placebo (Fig. 1). This ketamine dose was based on a previous study that achieved steady-state concentrations of 75 ng/mL and provided a robust BOLD signal with minimal psychotomimetic symptoms (De Simoni et al. [2013]).\nBlood samples were collected for the determination of TAK-063 and ketamine concentrations, and ketamine concentrations were used to verify intravenous delivery of ketamine. Blood samples for determination of TAK-063 concentration were collected at pre-dose and at 0.5, 2, 3, 4.5, 6, 8, 10, 12, and 24 h post dose. Blood samples for determination of ketamine concentration were collected at 0.5, 1, 2, and 2.5 h after administration of ketamine. The target ketamine concentration was established at 75 ng/mL. PK samples were not collected from the arm in which ketamine was administered."}, "[2]": {"details": "0.12 mg/kg iv bolus then 0.31 mg/kg/h infusion; ref De Simoni et al. [2013]; cited from earlier work"}, "healthy male subjects": {"system": "healthy male subjects", "experiment": "Ketamine-induced changes in fMRI BOLD signal during resting state", "type": "in vivo, human", "method": "as §1\nThe scanning protocol for the current study was very comprehensive and included multiple MR approaches. This publication reports the BOLD fMRI data for the working memory task, but also resting state fMRI. The magnetic scanning portion of the neuroimaging test battery was initiated 20 min before ketamine dosing. Imaging was performed using a 3 Tesla Siemens Trio scanner. The MR scanning protocol was initiated 20 min before ketamine dosing; prior to scanning, a structural magnetization prepared rapid gradient echo (MPRAGE) scan was collected. As part of the scanning protocol, each subject received 20 min of scanning − 10 min arterial spin labeling (ASL) plus 10 min resting BOLD prior to ketamine infusion. After ketamine infusion, the resting state fMRI BOLD acquisition continued for an additional 10 min. Next, a Spatial Working Memory task-induced fMRI BOLD acquisition was performed for 15 min. Following these BOLD acquisitions, another 10 min ASL scan was acquired and a 10-min T1 relaxometry scan was conducted. The MR scanning sequence ended with a 5-min MPRAGE acquisition.\nFifty sequential gradient-echo echoplanar images (EPIs) sensitive to blood oxygenation level-dependent (BOLD) signal were collected in contiguous slices of 6-mm thickness, with 3000-ms repetition time, 40-ms echo time, 20 × 20-cm field of view, a 64 × 64 image matrix, 70° flip angle, and an in-plane resolution of 3 × 3 mm. A working memory challenge based on the expectancy A-X Continuous Performance Test (AX-CPT) paradigm was presented. The AX-CPT task was implemented in Eprime and presents 144 trials in four blocks of 36 trials. Before scanning, participants practiced the task (Barch et al. [2001]; MacDonald et al. [2003]).\nWe conducted a number of pre-processing steps to standardize examination of data after acquisition. These steps included (a) using the anatomical image (T1 weighted MPRAGE acquired for each subject at the beginning of the imaging session) to determine the parameters for spatial normalization to the EPI template image supplied with statistical parametric mapping (SPM) using a 12-parameter transformation; (b) registering functional images to correct for subject movement during the experimental paradigm; (c) normalizing functional images to transform images from analyzed subjects into the same standard space; (d) smoothing images (8-mm full width at half maximum [FWHM]) to minimize normalization artifacts and improve signal to noise ratio; (e) applying a high pass filter of 1200 s to the data following spatial smoothing to minimize the influence of very low frequency noise present in fMRI BOLD data without distorting the ketamine response profile. […]"}, "healthy human subjects": {"system": "healthy human subjects", "details": "cited from earlier work"}},
  "data": [
    {"molecule": "CNC1(c2ccccc2Cl)CCCCC1=O", "note": "(stereo not drawn) [ketamine]", "values": [
      {"measurement": "concentration at 30 min", "setting": "[1]; 30 min post dose, with placebo or TAK-063 3 to 30 mg, range of means", "value": "69.9 to 83.3", "unit": "ng/mL"},
      {"measurement": "Cmax", "setting": "[1]; during continuous infusion, range of means across regimens", "value": "168 to 179", "unit": "ng/mL"},
      {"measurement": "Tmax", "setting": "[1]; range across regimens", "value": "2.3 to 2.5", "unit": "h"},
      {"measurement": "steady-state concentration", "setting": "[2]", "value": 75, "unit": "ng/mL"},
      {"measurement": "activation in ROIs", "setting": "healthy male subjects; percent BOLD signal change, resting state (Fig. 7)", "value": "increased activation in all ROIs examined"},
      {"measurement": "effect on fMRI BOLD resting signal", "setting": "healthy male subjects; placebo group, most regions studied", "value": "increased fMRI BOLD resting signal"},
      {"measurement": "effect on fMRI BOLD in cingulate/BA25", "setting": "healthy male subjects; placebo group, resting state", "value": "decrease in fMRI BOLD"}
    ]},
    {"molecule": "Cc1nc2n(c(=O)c1CCN1CCC(c3noc4cc(F)ccc34)CC1)CCCC2", "note": "[risperidone]", "values": [
      {"measurement": "ketamine-induced changes in BOLD signal", "setting": "healthy human subjects; ref Doyle et al. [2013], Shcherbinin et al. [2015]", "value": "reversed"},
      {"measurement": "ketamine-induced changes in brain perfusion (ASL)", "setting": "healthy human subjects; ref Shcherbinin et al. [2015]", "value": "increased ketamine-induced perfusion changes"}
    ]}
  ]
}
